Data: publication PMC7619385 (ACS infectious diseases, 2025)
Read-outs that look alike come from different tables or passages of the source.

Legend:
[1] = target: T1, LmxCLK1 (Leishmania mexicana, UniProt E9AMP2); assay: HTRF (TR-FRET) enzymatic inhibition assay; format: biochemical
T1 sequence (E9AMP2 1-422): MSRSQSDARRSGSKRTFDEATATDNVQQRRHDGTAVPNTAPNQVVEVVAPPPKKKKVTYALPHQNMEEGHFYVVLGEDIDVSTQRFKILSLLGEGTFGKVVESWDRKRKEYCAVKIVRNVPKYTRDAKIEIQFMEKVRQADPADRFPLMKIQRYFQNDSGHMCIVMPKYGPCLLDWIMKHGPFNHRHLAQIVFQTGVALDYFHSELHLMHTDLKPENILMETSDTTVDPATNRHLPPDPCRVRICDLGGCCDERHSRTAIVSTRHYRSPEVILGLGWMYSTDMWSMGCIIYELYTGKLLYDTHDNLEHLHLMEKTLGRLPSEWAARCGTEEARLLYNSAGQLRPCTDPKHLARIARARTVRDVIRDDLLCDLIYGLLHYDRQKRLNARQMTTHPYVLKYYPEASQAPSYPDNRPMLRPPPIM
Experimental: The enzymatic activity of full-length LmxCLK1 was monitored using a homogenous time-resolved fluorescence (HTRF)-based assay (HTRF KinEASE-STK S3 kit, Cisbio - catalog #62ST3PEC). For IC50 value determination, the data from two independent experiments performed in duplicate were fitted to the sigmoidal dose-response (variable slope) equation available in GraphPad Prism (v. 9.1.0). Detailed information for IC50 determination can be found in the Supplementary Information. […]
min at 4 °C. The supernatants were loaded onto an immobilized metal affinity chromatography (IMAC) […]
column (5 mL HisTrap FF Crude, GE Healthcare) and washed in Binding Buffer containing 30 mM imidazole.
Proteins were eluted in Binding Buffer with 300 mM imidazole. To remove the N-terminal 6xHis-tag […]
introduced during cloning (see above), proteins were incubated with TEV protease during dialysis […]
overnight at 4 °C into Gel Filtration Buffer (20 mM HEPES, 500 mM NaCl, 5% glycerol, 0.5 mM TCEP).
Recombinant proteins were further purified using reverse affinity chromatography on Ni-Sepharose […]
followed by gel filtration (Superdex 200 16/60, GE Healthcare), and concentrated using 10 kDa molecular […]
weight cut-off centrifugal concentrators (Millipore). LmxCLK1 (CQMED clone ID LmxCLK1-cb001) and […]
NLuc-LmxCLK1 (CQMED clone ID LmxCLK1-cb021) proteins were stored at -80 °C for in vitro biochemical […]
assays at 0.5 mg/mL and 0.7 mg/mL, respectively, measured by UV absorbance with a NanoDrop […]
spectrophotometer (Thermo Scientific), using the calculated molecular weight and estimated extinction […]
Purified proteins were further analyzed by LC-ESI-MS in a XEVO G2 Sx Q-ToF (Waters). Expected intact […]
masses for LmxCLK1 (CQMED clone ID LmxCLK1-cb001) and NLuc-LmxCLK1 (CQMED clone ID LmxCLK1- […]
cb021) were: 48,791.14 Da and 68,411.71 Da, respectively.
We monitored the activity of recombinantly produced full-length LmxCLK1 (CQMED clone ID LmxCLK1- […]
cb001) using a commercially-available homogenous time-resolved fluorescence (HTRF)-based assay (HTRF […]
KinEASE-STK S3 kit, Cisbio - catalog #62ST3PEC). Assay development included establishing reaction […]
parameters (optimal enzyme concentration, ATP concentration and reaction time).
(15-point, 3-fold serial dilution and a highest final assay concentration of 10 µM) prior to transfer (100 nL) […]
to a black, 384-well, round bottom, low-volume plate (Corning catalog #4514) containing a mixture of […]
LmxCLK1 and peptide substrate in kinase buffer using an automated liquid transferring system (CYBIO […]
FeliX®, Analytik Jena, Jena, Germany). […]
started by the addition of ATP and allowed to proceed for 75 min at 30 °C. Final concentrations for reaction […]
components were: 6 nM LmxCLK1, 66 µM ATP (10× KM,ATP), 1 µM peptide (STK Substrate 3-biotin, Cisbio).
All components were prepared in 1× Enzymatic Buffer (Cisbio) supplemented with 5 mM MgCl2, 1 mM […]
DTT, 0.01% Tween-20. The reaction was stopped by the addition of Detection Buffer containing EDTA, […]
Fluorescence signal was measured using a CLARIOstar microplate reader (BMG LABTECH) with excitation […]
at 330 nm, emission at 665 nm (acceptor) and 620 nm (donor), integration delay 60 μs and integration […]
time 400 μs. All reactions were done in duplicate and two independent experiments were performed.
Enzyme activity was expressed as the background-corrected HTRF ratio of the acceptor and donor […]
emission signals according to equation [1]:
(also on this page, place not known: imi dazole. Ni -Sepharose background -corrected (665/620)=3Acceptor!!"#$ −backgroundD.10,000 Downloaded from http://pubs.acs.org/aidcbc/article-supplement/3662943/pdf/id5c00610_si_001/ by guest on 07 August 2026) […]
where background is the background fluorescence obtained in the absence of enzyme (blank).
To determine IC50 values, the background-corrected HTRF ratio was plotted as a function of test

[2] = target: NLuc::LmxCLK1 (Leishmania mexicana, UniProt E9AMP2); assay: cell-based; format: cell-based; conditions: for receptor occupancy at 10 µM: read-out: Target occupancy Average
Method in brief: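 NanoBRET tracer displacement in live cells expressing NLuc-tagged CLK1, test compounds at 10 µM fixed, 1% DMSO final. Acceptor/donor emission (610/460 nm) ratio gives mBRET, converted to blank-corrected probe occupancy (%); probe KD from single-site saturation binding fits.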

[3] = target: T1, LmxCLK1; assay: biochemical; format: binding
[4] = purified LmxCLK1, 30-min pre-incubation, 66 µM ATP, read-out: IC50 enzymatic inhibition of LmxCLK1

Row | SMILES | IC50 ([1]; IC50 enzymatic inhibition of LmxCLK1, purified LmxCLK1, 30-min pre-incubation, 66 µM ATP) | IC50 [2] | receptor occupancy at 10 µM [2] | ΔTm at 10 µM ([3]; DSF, 10 µM compound, 2 µM LmxCLK1, Run 1, read-out: ΔTm Run 1) | ΔTm at 10 µM ([3]; DSF, 10 µM compound, 2 µM LmxCLK1, Run 2, read-out: ΔTm Run 2) | ΔTm at 10 µM ([3]; DSF, 10 µM compound, 2 µM LmxCLK1, mean of two runs, read-out: ΔTm Average) | IC50 ([1]; pre-incubation 0 min, read-out: Time-dependent IC50) | IC50 ([1]; pre-incubation 5 min, read-out: Time-dependent IC50) | IC50 ([1]; pre-incubation 10 min, read-out: Time-dependent IC50) | IC50 ([1]; pre-incubation 15 min, read-out: Time-dependent IC50) | IC50 ([1]; pre-incubation 30 min, read-out: Time-dependent IC50) | IC50 [1, 4] | ΔTm at 10 µM ([3]; read-out: ΔTm Average) | ΔTm at 10 µM ([3]; read-out: ΔTm Run 1) | ΔTm at 10 µM ([3]; read-out: ΔTm Run 2)
1 | Cc1ccc(C(=O)Nc2ccc(CN3CCN(C)CC3)c(C(F)(F)F)c2)cc1C#Cc1cnc2[nH]ncc2c1 [GZD824] | 29.9 nM | 4600 nM | 46.5 ± 3.2% | 17.1 °C | 17.7 °C | 17.4 ± 0.3 °C |  |  |  |  |  |  |  |  | 
2 | C=CC(=O)Nc1cccc(Sc2nc(Nc3ccc(N4CCN(C)CC4)cc3)ncc2Cl)c1 [WZ8040] |  | 2900 nM | 60.8 ± 0.8% |  |  |  | 1660 nM | 940 nM | 911 nM | 862 nM | 759 nM | 204 nM | 14.8 ± 0.1 °C | 14.7 °C | 15 °C
3 | C=CC(=O)Nc1cccc(Oc2nc(Nc3ccc(N4CCN(C)CC4)cc3)ncc2Cl)c1 [WZ3146] |  | 13600 nM | 35.2 ± 3.3% |  |  |  |  |  |  |  |  | 340 nM | 14.3 ± 0.1 °C | 14.2 °C | 14.4 °C
